Tests used:
Experiment in all cases: relative viability (nuclei count vs DMSO), 5 days (fraction); higher = more cells survive
Cediranib + Vorinostat = compound: COc1cc2c(Oc3ccc4[nH]c(C)cc4c3F)ncnc2cc1OCCCN1CCCC1 [Cediranib] + O=C(CCCCCCC(=O)Nc1ccccc1)NO [Vorinostat] (partner 1 µM)
How it was run: (§1)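 Lung cancer cell lines, seeded in 1536-well plates, were treated the following day by pin tool with a single drug or with five library-drug doses (not always all listed) in √10 steps on top of a fixed anchor-drug dose. Cells were fixed and nuclei stained in one step after 5 days, and nuclei were counted. Relative viability is the nuclei count for treated wells divided by that for vehicle wells, reported as medians of duplicate plates.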

Decitabine + Olaparib = compound: Nc1ncn([C@H]2C[C@H](O)[C@@H](CO)O2)c(=O)n1 [Decitabine] + O=C(c1cc(Cc2n[nH]c(=O)c3ccccc23)ccc1F)N1CCN(C(=O)C2CC2)CC1 [Olaparib] (partner 8 µM)
How it was run: as §1

[1] = compound: O=C(C[C@H]1NCCC[C@@H]1O)Cn1cnc2cc(Br)c(Cl)cc2c1=O (racemic) [Halofuginone] + Cc1cc(Nc2cc(N3CCN(C)CC3)nc(Sc3ccc(NC(=O)C4CC4)cc3)n2)n[nH]1 [Tozasertib] (partner 0.1 µM)
How it was run: as §1

Cediranib + Lapatinib = compound: COc1cc2c(Oc3ccc4[nH]c(C)cc4c3F)ncnc2cc1OCCCN1CCCC1 [Cediranib] + CS(=O)(=O)CCNCc1ccc(-c2ccc3ncnc(Nc4ccc(OCc5cccc(F)c5)c(Cl)c4)c3c2)o1 [Lapatinib] (partner 2 µM)
How it was run: as §1

Row | Cell Line | relative viability (Cediranib + Vorinostat; first compound 0.04 µM) | relative viability (Cediranib + Vorinostat; first compound 0.1265 µM) | relative viability (Cediranib + Vorinostat; first compound 0.4 µM) | relative viability (Cediranib + Vorinostat; first compound 1.265 µM) | relative viability (Cediranib + Vorinostat; first compound 4 µM) | relative viability (Decitabine + Olaparib; first compound 0.04 µM) | relative viability (Decitabine + Olaparib; first compound 0.1265 µM) | relative viability (Decitabine + Olaparib; first compound 0.4 µM) | relative viability (Decitabine + Olaparib; first compound 1.265 µM) | relative viability (Decitabine + Olaparib; first compound 4 µM) | relative viability ([1]; first compound 0.001 µM) | relative viability ([1]; first compound 0.003162 µM) | relative viability ([1]; first compound 0.01 µM) | relative viability ([1]; first compound 0.03162 µM) | relative viability ([1]; first compound 0.1 µM) | relative viability (Cediranib + Lapatinib; first compound 0.04 µM) | relative viability (Cediranib + Lapatinib; first compound 0.1265 µM) | relative viability (Cediranib + Lapatinib; first compound 0.4 µM) | relative viability (Cediranib + Lapatinib; first compound 1.265 µM) | relative viability (Cediranib + Lapatinib; first compound 4 µM)
1 | SW 900 | 0.425 | 0.413 | 0.438 | 0.478 | 0.495 | 0.563 | 0.365 | 0.329 | 0.228 | 0.208 | 0.611 | 0.557 | 0.558 | 0.46 | 0.258 |  |  |  |  | 
2 | LCLC-103H | 0.824 | 0.572 | 0.767 | 0.78 | 0.898 | 0.688 | 0.69 | 0.498 | 0.491 | 0.742 | 0.503 | 0.59 | 0.446 | 0.443 | 0.425 |  |  |  |  | 
3 | NCI-H1915 | 0.5 | 0.426 | 0.485 | 0.501 | 0.544 | 0.173 | 0.169 | 0.142 | 0.124 | 0.145 | 0.463 | 0.462 | 0.416 | 0.448 | 0.299 | 1.01 | 0.731 | 0.924 | 0.969 | 0.983
4 | IA-LM | 1.12 |  | 0.895 | 1.03 | 1.06 | 0.288 | 0.197 | 0.139 | 0.129 | 0.129 |  |  |  |  |  | 0.933 | 0.938 | 0.673 | 0.732 | 0.794
5 | NCI-H1734 | 0.718 | 0.805 | 0.77 | 0.768 | 0.911 | 0.274 | 0.302 | 0.203 | 0.152 | 0.191 | 0.226 | 0.267 | 0.278 | 0.291 | 0.251 | 0.913 | 0.989 | 1.07 | 0.826 | 1.21
6 | SK-MES-1 | 1.17 | 1.04 | 0.966 | 1.05 | 1.21 | 0.288 | 0.362 | 0.299 | 0.179 | 0.244 | 1.03 | 0.926 | 0.754 | 0.647 | 0.168 | 0.471 | 0.502 | 0.441 | 0.514 | 0.473
7 | Calu-6 |  |  |  |  |  | 0.234 | 0.285 | 0.182 | 0.166 | 0.14 |  |  |  |  |  | 1.17 | 1.08 | 0.874 | 1.03 | 1.14
8 | HCC-15 | 0.814 |  | 0.821 | 0.907 | 0.916 | 0.472 | 0.363 | 0.253 | 0.178 | 0.168 | 0.47 | 0.461 | 0.394 | 0.43 | 0.239 | 0.898 |  | 0.806 | 1.01 | 0.897
9 | SK-LU-1 | 0.881 | 0.777 | 0.685 | 0.775 | 0.773 | 0.274 | 0.244 | 0.214 | 0.247 | 0.253 | 0.367 | 0.381 | 0.34 | 0.313 | 0.171 | 1 | 0.743 | 0.851 | 0.836 | 1.07
10 | NCI-H2023 | 0.739 | 0.4 | 0.545 | 0.723 | 0.9 | 0.137 | 0.15 | 0.126 | 0.0911 | 0.0823 | 0.46 | 0.294 | 0.399 | 0.178 | 0.134 | 0.852 | 0.0771 | 0.716 | 0.654 | 0.878
11 | HCC-366 | 0.346 | 0.401 | 0.29 | 0.287 | 0.394 | 0.11 | 0.0915 | 0.066 | 0.0346 | 0.0247 | 0.142 | 0.115 | 0.0951 | 0.104 | 0.0283 | 1.08 | 0.479 | 0.983 | 0.957 | 1.23
12 | NCI-H1355 | 0.688 | 0.684 | 0.572 | 0.544 | 0.616 | 0.33 | 0.348 | 0.245 | 0.194 | 0.195 | 0.667 | 0.533 | 0.538 | 0.527 | 0.488 | 1.01 | 0.693 | 0.955 | 0.798 | 1.03
13 | NCI-H1650 | 0.629 | 0.546 | 0.599 | 0.548 | 0.679 | 0.509 | 0.367 | 0.259 | 0.2 | 0.207 | 0.559 | 0.384 | 0.357 | 0.29 | 0.192 | 0.955 | 0.183 | 0.802 | 0.776 | 0.665
14 | NCI-H2342 | 0.712 | 0.791 | 0.733 | 0.613 | 0.758 | 0.539 | 0.368 | 0.433 | 0.351 | 0.249 | 0.522 | 0.493 | 0.498 | 0.478 | 0.506 |  |  |  |  | 
15 | NCI-H1299 |  |  |  |  |  | 0.963 | 0.962 | 0.884 | 0.655 | 0.578 |  |  |  |  |  | 1.02 | 0.958 | 0.995 | 0.933 | 0.983
16 | NCI-H522 | 0.842 | 0.472 | 0.925 | 0.817 | 0.811 | 0.544 | 0.564 | 0.544 | 0.548 | 0.47 | 0.528 | 0.566 | 0.572 | 0.512 | 0.491 |  |  |  |  | 
17 | NCI-H1623 |  |  |  |  |  |  |  |  |  |  | 0.487 | 0.44 | 0.459 | 0.459 | 0.426 |  |  |  |  | 
18 | NCI-H1648 | 0.569 | 0.474 | 0.511 | 0.271 | 0.425 | 0.679 | 0.516 | 0.484 | 0.424 | 0.301 | 0.763 | 0.526 | 0.643 | 0.44 | 0.4 |  |  |  |  | 
19 | NCI-H1703 |  |  |  |  |  | 0.21 | 0.21 | 0.287 | 0.145 | 0.166 |  |  |  |  |  | 1.36 | 1.07 | 0.361 | 0.354 | 0.341
20 | ChaGo-K-1 | 0.719 | 0.377 | 0.719 | 0.757 | 0.808 | 0.28 | 0.28 | 0.222 | 0.198 | 0.242 | 0.256 | 0.205 | 0.261 | 0.222 | 0.208 |  |  |  |  | 

Reference: the supplement of paper PMC10307832
